Experimental data: ChEMBL document CHEMBL5523759, “Discovery of Novel HDAC3 Inhibitors with PD-L1 Downregulating/Degrading and Antitumor Immune Effects” (J Med Chem, 2024)
Active and inactive are the calls of the source. No cut-off for these calls is given here.

How the values were obtained:
[1] = Antiproliferative activity against human MINO cells assessed as reduction in cell viability measured for 48 hrs by MTT assay; type: functional, cell-based
Histone deacetylase 8 = target: T1, Histone deacetylase 8 (Homo sapiens, UniProt Q9BY41); assay: Inhibition of human recombinant HDAC8 using Ac-Leu-Gly-Lys (Tfa)-AMC as substrate preincubated with compound for 10 mins followed by substrate addition and measured after 45 mins by TECAN microtiter plate reader analysis
T1 sequence (Q9BY41 whole entry): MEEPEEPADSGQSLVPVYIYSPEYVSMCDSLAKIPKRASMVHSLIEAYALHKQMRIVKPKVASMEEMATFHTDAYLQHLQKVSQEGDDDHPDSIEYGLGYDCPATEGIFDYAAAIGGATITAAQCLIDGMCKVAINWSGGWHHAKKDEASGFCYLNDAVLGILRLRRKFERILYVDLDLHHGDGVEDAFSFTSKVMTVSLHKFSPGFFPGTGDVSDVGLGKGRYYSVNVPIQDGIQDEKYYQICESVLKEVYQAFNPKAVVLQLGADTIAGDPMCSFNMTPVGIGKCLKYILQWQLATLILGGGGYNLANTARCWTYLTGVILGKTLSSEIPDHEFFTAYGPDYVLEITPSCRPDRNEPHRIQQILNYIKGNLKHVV

Tubulin = assay: Inhibition of tubulin polymerization (unknown origin) measured upto 20 mins by spectrophotometer analysis; type: protein-complex assay, Homo sapiens
B16-F10 [2] = assay: Induction of apoptosis in mouse B16-F10 cells at 4 uM measured for 48 hrs by Annexin-V/FITC staining based flow cytometry analysis relative to control; type: functional
[3] = target: T2, Histone deacetylase 3 (Mus musculus) (UniProt O88895); assay: Inhibition of HDAC3 in mouse B16-F10 cells assessed as decrease in PD-L1 level measured for 24 hrs by Western blot analysis; type: cell-based; settings: dose 1-2 µM
T2 sequence (whole entry): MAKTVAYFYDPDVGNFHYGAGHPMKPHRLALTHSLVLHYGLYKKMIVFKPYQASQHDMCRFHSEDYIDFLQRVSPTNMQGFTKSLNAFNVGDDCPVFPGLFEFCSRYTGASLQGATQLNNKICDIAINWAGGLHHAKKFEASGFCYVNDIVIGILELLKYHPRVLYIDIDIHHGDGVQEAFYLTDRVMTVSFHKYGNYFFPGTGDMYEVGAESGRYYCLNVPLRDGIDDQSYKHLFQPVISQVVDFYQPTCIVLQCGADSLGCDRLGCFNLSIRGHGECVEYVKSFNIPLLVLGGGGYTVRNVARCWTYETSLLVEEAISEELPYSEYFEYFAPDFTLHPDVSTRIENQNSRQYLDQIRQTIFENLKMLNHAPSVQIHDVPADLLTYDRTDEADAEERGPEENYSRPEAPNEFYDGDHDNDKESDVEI

[4] = target: Programmed cell death 1 ligand 1 (Mus musculus, UniProt Q9EP73); assay: Induction of PD-L1 degradation in mouse B16-F10 cells measured for 24 hrs by Western blot analysis; type: cell-based
Programmed cell death 1 ligand 1, sequence (Q9EP73 whole entry): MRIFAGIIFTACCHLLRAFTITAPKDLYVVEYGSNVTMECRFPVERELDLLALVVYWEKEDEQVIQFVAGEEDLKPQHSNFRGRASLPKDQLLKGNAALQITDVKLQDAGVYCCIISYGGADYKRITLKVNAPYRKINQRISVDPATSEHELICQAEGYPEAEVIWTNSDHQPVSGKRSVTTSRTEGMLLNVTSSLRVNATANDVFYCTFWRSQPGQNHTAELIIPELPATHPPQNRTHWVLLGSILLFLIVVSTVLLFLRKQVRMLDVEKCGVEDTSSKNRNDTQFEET

[5] = target: Programmed cell death 1 ligand 1 (Mus musculus) (UniProt Q9EP73); assay: Induction of PD-L1 degradation in mouse B16-F10 cells at 10 uM measured for 24 hrs by Western blot analysis relative to control; type: cell-based
Programmed cell death 1 ligand 1 (Mus musculus), sequence (Q9EP73 whole entry): as above

[6] = target: Programmed cell death 1 ligand 1 (Mus musculus) (UniProt Q9EP73); assay: Induction of PD-L1 degradation in mouse B16-F10 cells 0.5 to 10 uM measured for 4 hrs in presence of MG132 by Western blot analysis; type: cell-based; settings: dose 0.5-10 µM
[7] = MRT (0 to t) in Sprague-Dawley rat at 20 mg/kg, po measured up to 12 hrs by LC-MS/MS analysis; type: ADME, organism-based; settings: in vivo
[8] = Half life in Sprague-Dawley rat at 2 mg/kg, iv measured up to 12 hrs by LC-MS/MS analysis; type: ADME, organism-based; settings: in vivo
[9] = Tmax in Sprague-Dawley rat at 20 mg/kg, po measured up to 12 hrs by LC-MS/MS analysis; type: ADME, organism-based; settings: in vivo
[10] = Clearance in Sprague-Dawley rat at 2 mg/kg, iv measured up to 12 hrs by LC-MS/MS analysis; type: ADME, organism-based; settings: in vivo
[11] = Oral bioavailability in Sprague-Dawley rat at 20 mg/kg measured up to 12 hrs by LC-MS/MS analysis; type: ADME, organism-based; settings: in vivo
[12] = Metabolic stability in mouse liver microsome assessed as parent compound remaining measured at 5 mins; type: ADME; settings: liver microsomes, read-out: Stability
[13] = Metabolic stability in mouse liver microsome assessed as parent compound remaining measured at 30 mins; type: ADME; settings: liver microsomes, read-out: Stability
[14] = Metabolic stability in rat liver microsome assessed as parent compound remaining measured immediately; type: ADME; settings: liver microsomes, read-out: Stability
[15] = Metabolic stability in rat liver microsome assessed as parent compound remaining measured at 5 mins; type: ADME; settings: liver microsomes, read-out: Stability
[16] = Metabolic stability in rat liver microsome assessed as parent compound remaining measured at 15 mins; type: ADME; settings: liver microsomes, read-out: Stability
[17] = Metabolic stability in rat liver microsome assessed as parent compound remaining measured at 45 mins; type: ADME; settings: liver microsomes, read-out: Stability
[18] = Metabolic stability in rat liver microsome assessed as half life; type: ADME; settings: liver microsomes
[19] = Metabolic stability in mouse liver microsome assessed as intrinsic clearance; type: ADME; settings: liver microsomes, read-out: CLH
B16-F10 [20] = assay: Antitumor activity against mouse B16-F10 cells implanted in C57BL/6 mouse model assessed as reduction in tumor volume at 25 mg/kg, IG administered for 9 days; type: functional, organism-based; settings: time 9.0 day
B16-F10 [21] = assay: Antitumor activity against mouse B16-F10 cells implanted in C57BL/6 mouse model assessed as tumor growth inhibition at 25 mg/kg, IG administered for 9 days; type: functional; settings: B16-F10, po, 216 h, time 9 day, read-out: TGI
[22] = Toxicity in C57BL/6 mouse implanted with mouse B16-F10 cells assessed as heart damage at 25 mg/kg, po administered for 9 days by H and E staining based analysis; type: organism-based; settings: in vivo, 216 h, time 9 day
[23] = Toxicity in C57BL/6 mouse implanted with mouse B16-F10 cells assessed as liver damage at 25 mg/kg, po administered for 9 days by H and E staining based analysis; type: organism-based; settings: in vivo, 216 h, time 9 day
[24] = Toxicity in C57BL/6 mouse implanted with mouse B16-F10 cells assessed as spleen damage at 25 mg/kg, po administered for 9 days by H and E staining based analysis; type: organism-based; settings: in vivo, 216 h, time 9 day
[25] = Acute toxicity in C57BL/6J mouse assessed as survival rate at 1000 mg/kg, po administered for 14 days; type: organism-based; settings: in vivo, time 14 day
B16-F10 [26] = assay: Antitumor activity against mouse B16-F10 cells implanted in C57BL/6 mouse model assessed as decrease in PD-L1 level at 25 mg/kg, po administered for 9 days by Western blot analysis; type: functional, organism-based; settings: time 9.0 day
B16-F10 [27] = assay: Antitumor activity against mouse B16-F10 cells implanted in C57BL/6 mouse model assessed as induction of PD-L1 degradation at 25 mg/kg, po administered for 9 days by Western blot analysis; type: functional, organism-based; settings: time 9.0 day
B16-F10 [28] = assay: Antitumor immunity against mouse B16-F10 cells implanted in C57BL/6 mouse model assessed as increase in CD3+ CD8+ T cells at 25 mg/kg, po administered for 9 days (reference value: 1.01%); type: functional; settings: time 9 day
[29] = target: T2, Histone deacetylase 3 (Mus musculus); assay: Inhibition of HDAC3 in mouse B16-F10 cells assessed as upregulation of acetylated H3 level at 2 uM measured for 24 hrs by Western blot analysis; type: cell-based

## CCCNNC(=O)c1ccc(CNC(=O)c2ncc(CNc3ccccc3)s2)cc1
[1]
  IC50: 30 nM
Histone deacetylase 8
  IC50: > 10 µM
Tubulin
  IC50: 7.3 µM
B16-F10 [2]
  Activity: 61.25%
[3]
  inhibition: Dose-Dependent Effect
[4]
  DC50: 5.7 µM
[5]
  Emax: 80%
[6]
  Activity: Active
[7]
  MRT last at 12 h: 3.19 h
[8]
  half-life: 24 min
[9]
  Tmax: 30 min
[10]
  clearance: 64.5 mL/min/kg
[11]
  bioavailability: 57%
[12]
  remaining at 5 min: 70.4%
[13]
  remaining at 0.5 h: 11.3%
[14]
  remaining at 0 min: 100%
[15]
  remaining at 5 min: 79.9%
[16]
  remaining at 0.25 h: 57.5%
[17]
  remaining at 0.75 h: 25.4%
[18]
  half-life: 23.7 min
[19]
  CLint scaled: 563 mL/min/kg
B16-F10 [20]
  Activity: Active
B16-F10 [21]
  inhibition in vivo at 25 mg/kg: 37%
[22]
  Activity: Non-Toxic
[23]
  Activity: Non-Toxic
[24]
  Activity: Non-Toxic
[25]
  survival at 336 h: 80%
B16-F10 [26]
  Activity: Active
B16-F10 [27]
  Activity: Active
B16-F10 [28]
  Activity: 3.7%

## Nc1ccccc1NC(=O)c1ccc(-c2ncc(CNc3ccccc3)s2)cc1
[1]
  IC50: 52 nM
Histone deacetylase 8
  IC50: > 10 µM
B16-F10 [2]
  Activity: 20.96%
[29]
  inhibition: Active
